For one series, the target named is T1, plasminogen kringle 1 (Homo sapiens, UniProt P00747).
T1 construct: Signal intensities from free tranexamic acid are reduced when recombinant kringle 1 protein is added
The series is described as follows: NMR competition assay (1D T1rho) for binding to plasminogen kringle 1, tranexamic acid as reference. As to the method: The NMR experiment identifies compounds binding to the lysine binding pocket in a competition assay where tranexamic acid was used as reference compound and 1D T1rho experiments were used for detection. Signal intensities from free tranexamic acid are reduced when recombinant kringle 1 protein is added due to binding to this protein. The NMR signals from tranexamic acid regain intensity when an added compound displaces it from the lysine binding pocket of kringle 1.
The compounds were run one-by-one at a concentration between 15 and 300 μM. The concentration of protein and tranexamic acid were 10 and 100 μM respectively. A test compound resulting in at least 10% increase in tranexamic acid intensity (displacement) was considered binding to kringle 1.

Series [1] has as its system stratum corneum protease activity. As to conditions: ˜13% EACA (1 M) cream, rosacea patients; cited from earlier work.
Series [2] has as its system fibrinolysis in human plasma clot (tPA activation of plasminogen). The note with it: citrated platelet poor human plasma, tPA 80 ng/ml, 37° C.; for pIC50: read-out: IC50 (clot-lysis time prolonged to twice the vehicle value); for IC90: read-out: IC90 (clot-lysis time prolonged to nine times the vehicle value).
The conditions of series [3]: oral TXA; cited from earlier work.
Another series relates to stratum corneum barrier. As to conditions: topically applied, healthy volunteer, after experimental damage to stratum corneum; cited from earlier work.
Series [4] has as its system stratum corneum barrier function. The note with it: topical 3% (˜0.2M) TXA, rosacea patients; cited from earlier work.
Another series relates to melasma. As to conditions: cited from earlier work.
For series [5] the following is noted: treatment of bleeding disorders; cited from earlier work.

pIC50, pKd: −log10 of the molar value.

T1 sequence (P00747 103-181 limits assumed): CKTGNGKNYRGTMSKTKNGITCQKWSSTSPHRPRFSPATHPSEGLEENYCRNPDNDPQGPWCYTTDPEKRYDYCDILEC

Turning to `O=c1cc([C@H]2CCN[C@@H](c3cc(F)c(F)cc3F)C2)o[nH]1` [5-[(2R,4S)-2-(2,4,5-trifluorophenyl)piperidin-4-yl]-2,3-dihydro-1,2-oxazol-3-one], at plasminogen kringle 1, the pKd is 6.52. Turning to `O=c1cc([C@H]2CCN[C@@H](c3ccc(Cl)cc3Cl)C2)o[nH]1` [5-[(2R,4S)-2-(2,4-dichlorophenyl)piperidin-4-yl]-2,3-dihydro-1,2-oxazol-3-one], the pKd on plasminogen kringle 1 was 6.70. Still for that read-out and setting: then `O=c1cc([C@H]2CCN[C@@H](c3ccc(F)cc3F)C2)o[nH]1` [5-[(2R,4S)-2-(2,4-difluorophenyl)piperidin-4-yl]-2,3-dihydro-1,2-oxazol-3-one], with 6.70; and `Cn1nnc([C@H]2C[C@@H](c3cc(=O)[nH]o3)CCN2)n1` [5-[(2R,4S)-2-(2-methyl-2H-1,2,3,4-tetrazol-5-yl)piperidin-4-yl]-2,3-dihydro-1,2-oxazol-3-one], with 6.70.

For `CC(C)(C)c1cccc([C@H]2C[C@@H](c3cc(=O)[nH]o3)CCN2)c1` [5-[(2R,4S)-2-(3-tert-butylphenyl)piperidin-4-yl]-2,3-dihydro-1,2-oxazol-3-one], the pKd at plasminogen kringle 1 is 6.55. With `O=c1cc([C@H]2CCN[C@@H](c3ccc(Cl)cc3)C2)o[nH]1` [5-[(2R,4S)-2-(4-chlorophenyl)piperidin-4-yl]-2,3-dihydro-1,2-oxazol-3-one], at plasminogen kringle 1, the pKd is 7.00. Compared with the last molecule, the pKd is 0.45 log units higher.

With `O=c1cc([C@H]2CCN[C@@H](c3ccc(F)cc3)C2)o[nH]1` [5-[(2R,4S)-2-(4-fluorophenyl)piperidin-4-yl]-2,3-dihydro-1,2-oxazol-3-one], the pKd on plasminogen kringle 1 is 6.22. The same measure, in the same setting: for `CS(=O)(=O)c1ccc([C@H]2C[C@@H](c3cc(=O)[nH]o3)CCN2)cc1` [5-[(2R,4S)-2-(4-methanesulfonylphenyl)piperidin-4-yl]-2,3-dihydro-1,2-oxazol-3-one] the value was 6.70; for `O=c1cc([C@H]2CCN[C@@H](c3ccc(OC(F)(F)F)cc3F)C2)o[nH]1` [5-[(2R,4S)-2-[2-fluoro-4-(trifluoromethoxy)phenyl]piperidin-4-yl]-2,3-dihydro-1,2-oxazol-3-one], 6.52. For `O=c1cc([C@H]2CCN[C@@H](c3ccc(C(F)(F)F)cc3F)C2)o[nH]1` [5-[(2R,4S)-2-[2-fluoro-4-(trifluoromethyl)phenyl]piperidin-4-yl]-2,3-dihydro-1,2-oxazol-3-one], the pKd on plasminogen kringle 1 was 6.52. Still for that read-out and setting: then `Cc1cc(C(F)(F)F)ccc1[C@H]1C[C@@H](c2cc(=O)[nH]o2)CCN1` [5-[(2R,4S)-2-[2-methyl-4-(trifluoromethyl)phenyl]piperidin-4-yl]-2,3-dihydro-1,2-oxazol-3-one], with 6.52; and `O=c1cc([C@H]2CCN[C@@H](c3ccc(C(F)(F)F)c(F)c3)C2)o[nH]1` [5-[(2R,4S)-2-[3-fluoro-4-(trifluoromethyl)phenyl]piperidin-4-yl]-2,3-dihydro-1,2-oxazol-3-one], with 6.70; and `Cc1cc([C@H]2C[C@@H](c3cc(=O)[nH]o3)CCN2)ccc1C(F)(F)F` [5-[(2R,4S)-2-[3-methyl-4-(trifluoromethyl)phenyl]piperidin-4-yl]-2,3-dihydro-1,2-oxazol-3-one], with 7.00. Molecule `O=c1cc([C@H]2CCN[C@@H](c3ccc(C(F)(F)F)cc3)C2)o[nH]1` [5-[(2R,4S)-2-[4-(trifluoromethyl)phenyl]piperidin-4-yl]-2,3-dihydro-1,2-oxazol-3-one] showed a pKd at plasminogen kringle 1 of 7.00. Same read-out and setting: for `O=c1cc([C@H]2CCN[C@@H](c3ccc(C(F)(F)F)nc3)C2)o[nH]1` [5-[(2R,4S)-2-[6-(trifluoromethyl)pyridin-3-yl]piperidin-4-yl]-2,3-dihydro-1,2-oxazol-3-one] the value was 6.55; for `O=c1cc([C@H]2CCN[C@@H](Cc3ccc(F)cc3F)C2)o[nH]1` [5-[(2R,4S)-2-[(2,4-difluorophenyl)methyl]piperidin-4-yl]-2,3-dihydro-1,2-oxazol-3-one], 7.00. Still for that read-out and setting: for `O=c1cc([C@H]2CCN[C@@H](Cc3cc(F)c(F)c(F)c3)C2)o[nH]1` [5-[(2R,4S)-2-[(3,4,5-trifluorophenyl)methyl]piperidin-4-yl]-2,3-dihydro-1,2-oxazol-3-one] the value was 6.85; for `O=c1cc([C@H]2CCN[C@@H](Cc3ccc(F)c(F)c3)C2)o[nH]1` [5-[(2R,4S)-2-[(3,4-difluorophenyl)methyl]piperidin-4-yl]-2,3-dihydro-1,2-oxazol-3-one], 7.00; for `CC(C)(C)c1cc(C[C@H]2C[C@@H](c3cc(=O)[nH]o3)CCN2)cc(C(C)(C)C)c1` [5-[(2R,4S)-2-[(3,5-di-tert-butylphenyl)methyl]piperidin-4-yl]-2,3-dihydro-1,2-oxazol-3-one], 6.00.

As for `CS(=O)(=O)c1ccc(C[C@H]2C[C@@H](c3cc(=O)[nH]o3)CCN2)cc1` [5-[(2R,4S)-2-[(4-methanesulfonylphenyl)methyl]piperidin-4-yl]-2,3-dihydro-1,2-oxazol-3-one], the negative-log Kd (pKd) at plasminogen kringle 1 was 6.40. Same read-out and setting: for `CC(C)(C)c1ccc(C[C@H]2C[C@@H](c3cc(=O)[nH]o3)CCN2)cc1` [5-[(2R,4S)-2-[(4-tert-butylphenyl)methyl]piperidin-4-yl]-2,3-dihydro-1,2-oxazol-3-one] the value was 6.52; for `O=c1cc([C@H]2CCN[C@@H](COC3CCCCC3)C2)o[nH]1` [5-[(2R,4S)-2-[(cyclohexyloxy)methyl]piperidin-4-yl]-2,3-dihydro-1,2-oxazol-3-one], 6.52. On the same count and under the same terms, then `O=c1cc([C@H]2CCN[C@@H](CN3CCn4c(nnc4C(F)(F)F)C3)C2)o[nH]1` [5-[(2R,4S)-2-{[3-(trifluoromethyl)-5H,6H,7H,8H-[1,2,4]triazolo[4,3-a]pyrazin-7-yl]methyl}piperidin-4-yl]-2,3-dihydro-1,2-oxazol-3-one], with 6.62; and `O=c1cc([C@H]2CCN[C@@H](Cc3ccc(C(F)(F)F)c(F)c3)C2)o[nH]1` [5-[(2R,4S)-2-{[3-fluoro-4-(trifluoromethyl)phenyl]methyl}piperidin-4-yl]-2,3-dihydro-1,2-oxazol-3-one], with 6.62; and `O=c1cc([C@H]2CCN[C@@H](CN3CCC[C@H]3C(F)(F)F)C2)o[nH]1` [5-[(2R,4S)-2-{[(2S)-2-(trifluoromethyl)pyrrolidin-1-yl]methyl}piperidin-4-yl]-2,3-dihydro-1,2-oxazol-3-one], with 6.40. Same read-out and setting: for `CC(C)(C)c1ccc(C[C@@H]2C[C@@H](c3cc(=O)[nH]o3)CCN2)cc1` [5-[(2S,4S)-2-[(4-tert-butylphenyl)methyl]piperidin-4-yl]-2,3-dihydro-1,2-oxazol-3-one] the value was 7.00. Consider `NCCCCCC(=O)O` [EACA, 6-aminohexanoic acid], for which the “stratum corneum protease activity” value in series [1] is “reduction in stratum corneum protease activity”. Moreover, in series [2], the pIC50 was 4.14 and the IC90 came to 637 µM. In the case of `NCC1CCC(C(=O)O)CC1` (stereo not shown) [TXA, 4-(aminomethyl)cyclohexane-1-carboxylic acid], in series [2], the pIC50 was 5.18 and the IC90 is 55.4 µM. In addition, the “allergic skin reaction, fraction of treated” value in series [3] is < 1/100. Moreover, in the series on stratum corneum barrier, the “stratum corneum barrier recovery” value is recorded as “enhance stratum corneum barrier recovery”. Also, in series [4], the “stratum corneum barrier function” value is reported as “improved stratum corneum barrier function”. Moreover, the effect on melasma entry with melasma (topical 5% (˜0.3M) TXA versus vehicle) was “no effect”. Moreover, the erythema result in the series with melasma (topical 5% (˜0.3M) TXA) is recorded as “produced erythema”. The therapeutic plasma concentration in series [5] was 30 to 90 µM.

Values taken from US20180338964A1, “3-(PIPERIDIN-4-YL)-ISOXAZOL-3(OH)-ONES FOR TREATMENT OF DERMATOLOGIC DISORDERS” (Emeriti Pharma AB, priority 2014, published 2018).
